Experimental data published in ChEMBL document CHEMBL4732150 (J Med Chem, 2021).

Tests used:
[1] = Cmax in Sprague-Dawley rat at 2 mg/kg, IG administered as single dose and measured upto 24 hrs by LC-MS/MS analysis; assay type: ADME, organism-based; set-up: route […], dose 2 mg/kg, time <=24; conditions: in vivo, po
[2] = (§1) Drug metabolism in CD1 mouse liver microsomes assessed as 3,3-dideuterio-N-[4-methoxy-2-(methylamino)-5-[[4-[1-(trideuteriomethyl)indol-3-yl]pyrimidin-2-yl]amino]phenyl]prop-2-enamide metabolite formation preincubated for 10 mins under shaking condition followed by NADPH generating system addition and measured up to 60 mins by LC-MS/MS analysis; assay type: ADME, Microsome; conditions: 1 h, time <=70 min
[3] = Cmax in Sprague-Dawley rat at 6 mg/kg/day, IG administered for 7 consecutive days by LC-MS/MS analysis; assay type: ADME, organism-based; set-up: route […], time 7 day, dose 6 mg/kg/day; conditions: in vivo, po
Cytochrome P450 2C19 = Cytochrome P450 2C19 (Homo sapiens, UniProt P33261); assay: Inhibition of CYP2C19 in human liver microsomes using S-mephenytoin as substrate preincubated for 10 mins in presence of NADPH generating system followed by substrate addition and measured after 20 mins by LC-MS/MS analysis; assay type: ADME
[4] = (§2) Drug metabolism in CD1 mouse liver microsomes assessed as 3,3-dideuterio-N-[4-methoxy-2-[methyl-[2-(methylamino)ethyl]amino]-5-[[4-[1-(trideuteriomethyl)indol-3-yl]pyrimidin-2-yl]amino]phenyl]prop-2-enamide metabolite formation preincubated for 10 mins under shaking condition followed by NADPH generating system addition and measured up to 60 mins by LC-MS/MS analysis; assay type: ADME, Microsome; conditions: 1 h, time <=70 min
Cytochrome P450 1A2 = molecular target: T1, Cytochrome P450 1A2 (Homo sapiens, UniProt P05177); assay: Inhibition of CYP1A2 in human liver microsomes using phenacetin as substrate preincubated for 10 mins in presence of NADPH generating system followed by substrate addition and measured after 3 mins by LC-MS/MS analysis; assay type: ADME
T1 sequence (P05177 whole entry): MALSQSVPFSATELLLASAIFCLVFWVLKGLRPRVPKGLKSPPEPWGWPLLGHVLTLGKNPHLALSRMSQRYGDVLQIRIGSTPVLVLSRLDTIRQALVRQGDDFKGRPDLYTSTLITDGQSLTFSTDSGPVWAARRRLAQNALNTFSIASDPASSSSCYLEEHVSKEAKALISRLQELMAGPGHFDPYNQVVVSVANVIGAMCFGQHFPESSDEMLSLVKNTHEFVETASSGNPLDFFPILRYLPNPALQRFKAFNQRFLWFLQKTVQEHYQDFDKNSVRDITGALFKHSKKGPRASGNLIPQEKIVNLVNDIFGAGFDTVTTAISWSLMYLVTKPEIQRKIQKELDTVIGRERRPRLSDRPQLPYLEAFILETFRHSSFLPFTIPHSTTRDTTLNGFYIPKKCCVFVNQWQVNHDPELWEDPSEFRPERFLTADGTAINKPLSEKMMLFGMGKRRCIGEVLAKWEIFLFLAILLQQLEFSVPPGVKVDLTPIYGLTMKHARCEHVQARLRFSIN

Cytochrome P450 2C9 = Cytochrome P450 2C9 (Homo sapiens, UniProt P11712); assay: Inhibition of CYP2C9 in human liver microsomes using diclofenac as substrate preincubated for 10 mins in presence of NADPH generating system followed by substrate addition and measured after 10 mins by LC-MS/MS analysis; assay type: ADME
[5] = as §1, with “cynomolgus monkey” for “CD1 mouse”; assay type: ADME, Macaca fascicularis, Microsome; conditions: 1 h, time <=70 min
[6] = Half life in Beagle dog liver microsomes preincubated for 10 mins under shaking condition followed by NADPH generating system addition and measured up to 60 mins by LC-MS/MS analysis
[7] = Half life in CD1 mouse liver microsomes preincubated for 10 mins under shaking condition followed by NADPH generating system addition and measured up to 60 mins by LC-MS/MS analysis
[8] = Half life in Sprague-Dawley rat liver microsomes preincubated for 10 mins under shaking condition followed by NADPH generating system addition and measured up to 20 mins by LC-MS/MS analysis
[9] = as §2, with “Beagle dog” for “CD1 mouse”; assay type: ADME, Canis lupus familiaris, Microsome; conditions: 1 h, time <=70 min
[10] = Intrinsic clearance in human liver microsomes preincubated for 10 mins under shaking condition followed by NADPH generating system addition and measured up to 60 mins by LC-MS/MS analysis; assay type: ADME, Microsome; conditions: 1 h, time <=70 min
[11] = as §1, with “Sprague-Dawley rat” for “CD1 mouse”; assay type: ADME, Microsome; conditions: 1 h, time <=70 min
[12] = as §2, with “Sprague-Dawley rat” for “CD1 mouse”; assay type: ADME, Microsome; conditions: 1 h, time <=70 min
[13] = Cmax in Sprague-Dawley rat at 2 mg/kg, iv administered as single dose and measured upto 24 hrs by LC-MS/MS analysis; assay type: ADME, organism-based; set-up: route intravenous, dose 2 mg/kg, time <=24; conditions: in vivo
[14] = Intrinsic clearance in CD1 mouse liver microsomes preincubated for 10 mins under shaking condition followed by NADPH generating system addition and measured up to 60 mins by LC-MS/MS analysis; assay type: ADME, Microsome; conditions: 1 h, time <=70 min
[15] = Oral bioavailability in Sprague-Dawley rat at 6 mg/kg/day, IG administered for 7 consecutive days by LC-MS/MS analysis; assay type: ADME, organism-based; conditions: in vivo, time 7 day
[16] = Intrinsic clearance in Beagle dog liver microsomes preincubated for 10 mins under shaking condition followed by NADPH generating system addition and measured up to 60 mins by LC-MS/MS analysis; assay type: ADME, Canis lupus familiaris, Microsome; conditions: 1 h, time <=70 min
in vitro = conditions: human, liver microsomes
[17] = Intrinsic clearance in cynomolgus monkey liver microsomes preincubated for 10 mins under shaking condition followed by NADPH generating system addition and measured up to 60 mins by LC-MS/MS analysis; assay type: ADME, Macaca fascicularis, Microsome; conditions: 1 h, time <=70 min

Chain of Cytochrome P450 2C9 (P11712 whole entry): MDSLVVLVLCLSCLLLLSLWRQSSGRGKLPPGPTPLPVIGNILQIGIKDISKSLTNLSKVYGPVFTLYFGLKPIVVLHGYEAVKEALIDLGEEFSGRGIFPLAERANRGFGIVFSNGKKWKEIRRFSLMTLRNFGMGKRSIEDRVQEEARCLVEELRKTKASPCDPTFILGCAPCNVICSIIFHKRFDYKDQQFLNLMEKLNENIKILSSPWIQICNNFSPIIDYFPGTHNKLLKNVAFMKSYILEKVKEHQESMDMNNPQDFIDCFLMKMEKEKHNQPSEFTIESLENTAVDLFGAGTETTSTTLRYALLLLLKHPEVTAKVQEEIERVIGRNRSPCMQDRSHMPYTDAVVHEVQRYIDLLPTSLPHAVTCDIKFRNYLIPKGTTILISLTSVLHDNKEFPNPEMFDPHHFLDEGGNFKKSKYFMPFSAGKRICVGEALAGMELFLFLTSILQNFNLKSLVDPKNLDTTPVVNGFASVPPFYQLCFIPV
Chain of Cytochrome P450 2C19 (P33261 whole entry): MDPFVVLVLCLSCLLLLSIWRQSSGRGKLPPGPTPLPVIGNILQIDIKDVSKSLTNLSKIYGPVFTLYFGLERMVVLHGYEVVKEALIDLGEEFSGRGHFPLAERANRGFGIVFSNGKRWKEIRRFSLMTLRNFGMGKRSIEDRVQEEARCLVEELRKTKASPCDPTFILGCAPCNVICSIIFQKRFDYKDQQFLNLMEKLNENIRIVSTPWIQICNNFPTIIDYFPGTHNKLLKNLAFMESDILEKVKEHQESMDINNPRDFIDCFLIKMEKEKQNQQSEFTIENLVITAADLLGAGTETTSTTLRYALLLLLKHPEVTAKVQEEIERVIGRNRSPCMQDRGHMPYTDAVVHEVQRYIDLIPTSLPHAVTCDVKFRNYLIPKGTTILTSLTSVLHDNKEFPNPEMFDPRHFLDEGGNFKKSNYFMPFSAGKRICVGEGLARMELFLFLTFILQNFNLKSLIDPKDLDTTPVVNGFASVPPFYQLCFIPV

CS(=O)(=O)O.[2H]C([2H])=CC(=O)Nc1cc(Nc2nccc(-c3cn(C([2H])([2H])[2H])c4ccccc34)n2)c(OC)cc1N(C)CCN(C)C
Cmax [1]: 46.7 nM | Drug metabolism [2]: Metabolite_Detected | Cmax [3]: 113 nM | IC50 (Cytochrome P450 2C19): 43 µM | Drug metabolism [4]: Metabolite_Detected | IC50 (Cytochrome P450 1A2): 39.8 µM | IC50 (Cytochrome P450 2C9): > 50 µM | Drug metabolism [5]: Metabolite_Detected | half-life at 1 h [6]: 22.6 min | half-life at 1 h [7]: 23.7 min | half-life at 20 min [8]: 34.6 min | Drug metabolism [9]: Metabolite_Detected | CLint [10]: 9.6 µL/min/mg | Drug metabolism [11]: Metabolite_Detected | Drug metabolism [12]: Metabolite_Detected | Cmax [13]: 277 nM | CLint [14]: 58.6 µL/min/mg | bioavailability [15]: 29.6% | CLint [16]: 61.3 µL/min/mg | half-life at 1 h (in vitro): 144 min | CLint [17]: 54.2 µL/min/mg
